The record followed here is patent US20240218022A1, “ANTI-VISTA MACROCYCLIC PEPTIDES AND COMPOSITIONS” (BRISTOL-MYERS SQUIBB COMPANY, priority 2022, published 2024).

Positions of bridges follow the written chain, without caps; N, C: chain ends. Non-standard residues stand in square brackets, D forms with d. Residues, ends and D or L forms follow the SMILES beside them. 2Nal = N[C@@H](Cc1ccc2ccccc2c1)C(=O)O; Ahp(2) = CCCCC[C@H](N)C(=O)O; NMeNle = CCCC[C@H](NC)C(=O)O; NHexGly = CCCCCCNCC(=O)O; Nle = CCCC[C@H](N)C(=O)O; Orn = NCCC[C@H](N)C(=O)O

One assay concerns the target T1, mouse VISTA (mVISTA) (Mus musculus, UniProt Q9D659).
T1 construct: expressed in transfected cells; host or cells: Human embryonic kidney 293T cells
T1 sequence (Q9D659 33-308): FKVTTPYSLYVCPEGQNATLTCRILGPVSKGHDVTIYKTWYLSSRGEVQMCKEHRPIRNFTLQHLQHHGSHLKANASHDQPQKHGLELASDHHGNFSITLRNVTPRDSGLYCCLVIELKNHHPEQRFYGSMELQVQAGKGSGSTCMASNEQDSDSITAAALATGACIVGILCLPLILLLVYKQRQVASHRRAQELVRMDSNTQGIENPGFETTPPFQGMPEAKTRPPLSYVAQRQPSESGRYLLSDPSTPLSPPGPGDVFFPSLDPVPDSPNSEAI
Briefly: Cell-Based Binding High-Content Assay For mVISTA (HC CBA mVISTA). The settings on record: 293T cells expressing mouse VISTA; competition with biotinylated peptide (2 nM); read-out: HC CBA mVISTA IC50. In a few lines:
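Competition of compound with a biotinylated peptide (final 2 nM, 30 min at RT) for binding to mVISTA on 293T cells, run under no-wash or wash (1 h compound preincubation then removal) formats. Readout by Alexa 647–streptavidin imaging on a high-content platform; four-parameter logistic fit gave IC50.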
Consider `CCCCCCN1CC(=O)N[C@@H](Cc2ccc(O)cc2)C(=O)N[C@@H](CCCC)C(=O)N[C@@H](CC(=O)O)C(=O)N[C@@H](CCCNC(=N)N)C(=O)N[C@@H](CC(C)C)C(=O)N[C@@H](CCCCC)C(=O)N2CCC[C@H]2C(=O)N[C@@H](C(C)C)C(=O)N[C@@H](CC(=O)O)C(=O)N[C@H](C(=O)N[C@@H](CC(=O)O)C(N)=O)CSCC(=O)N[C@@H](Cc2ccccc2)C(=O)N[C@@H](Cc2ccc(O)cc2)C(=O)N[C@@H](CC(=O)O)C1=O` [Example 1001] ({CH2CO}-FYD[NHexGly]Y[Nle]DRL[Ahp(2)]PVDCD-NH2; thioether N-14), for which the IC50 was determined as 12.7 nM.

The same assay, now with this note: cell-based binding high-content assay, mVISTA; the 16th table; read-out: HC CBA mVISTA IC50.
For `CCCCCCN1CC(=O)N[C@@H](Cc2ccc(O)cc2)C(=O)N[C@@H](CCCC)C(=O)N[C@@H](CC(=O)O)C(=O)N[C@@H](CCCN)C(=O)N[C@@H](CC(C)C)C(=O)N[C@@H](CCCCC)C(=O)N2CCC[C@H]2C(=O)N[C@@H](C(C)C)C(=O)N[C@@H](CC(=O)O)C(=O)N[C@H](C(=O)N[C@@H](CO)C(N)=O)CSCC(=O)N[C@@H](Cc2ccc3ccccc3c2)C(=O)N[C@@H](Cc2ccc(O)cc2)C(=O)N[C@@H](CC(=O)O)C1=O` [Ex 1319] ({CH2CO}-[2Nal]YD[NHexGly]Y[Nle]D[Orn]L[Ahp(2)]PVDCS-NH2; thioether N-14), the IC50 turned out to be 13.7 nM. On to `CCCCCCN1CC(=O)N[C@@H](Cc2ccc(O)cc2)C(=O)N[C@@H](CCCC)C(=O)N[C@@H](CC(=O)O)C(=O)N[C@@H](CCCN)C(=O)N(C)[C@@H](CCCC)C(=O)N[C@@H](CCCCC)C(=O)N2CCC[C@H]2C(=O)N[C@@H](C(C)C)C(=O)N[C@@H](CC(=O)O)C(=O)N[C@H](C(=O)N[C@@H](CO)C(N)=O)CSCC(=O)N[C@@H](Cc2ccc3ccccc3c2)C(=O)N[C@@H](Cc2ccc(O)cc2)C(=O)N[C@@H](CC(=O)O)C1=O` [Ex 1320] ({CH2CO}-[2Nal]YD[NHexGly]Y[Nle]D[Orn][NMeNle][Ahp(2)]PVDCS-NH2; thioether N-14), for which the IC50 is 21.3 nM. Turning to `CCCCCCN1CC(=O)N[C@@H](Cc2ccc(O)cc2)C(=O)N[C@@H](CCCC)C(=O)N[C@@H](CC(N)=O)C(=O)N[C@@H](CCCNC(=N)N)C(=O)N[C@@H](CC(C)C)C(=O)N[C@@H](CCCCC)C(=O)N2CCC[C@H]2C(=O)N[C@@H](C(C)C)C(=O)N[C@@H](CC(=O)O)C(=O)N[C@H](C(=O)N[C@@H](Cc2c[nH]c3ccccc23)C(N)=O)CSCC(=O)N[C@@H](Cc2ccc3ccccc3c2)C(=O)N[C@@H](Cc2ccc(O)cc2)C(=O)N[C@@H](CC(=O)O)C1=O` [Ex 1321] ({CH2CO}-[2Nal]YD[NHexGly]Y[Nle]NRL[Ahp(2)]PVDCW-NH2; thioether N-14), the IC50 is 15.9 nM. Take `CCCCCCN1CC(=O)N[C@@H](Cc2ccc(O)cc2)C(=O)N[C@@H](C(C)C)C(=O)NCC(=O)N[C@@H](CCCNC(=N)N)C(=O)N[C@@H](CC(C)C)C(=O)N[C@@H](CCCCC)C(=O)N2CCC[C@H]2C(=O)N[C@@H](C(C)C)C(=O)N[C@@H](CC(=O)O)C(=O)N[C@H](C(=O)N[C@@H](Cc2ccc(O)cc2)C(N)=O)CSCC(=O)N[C@@H](Cc2ccc3ccccc3c2)C(=O)N[C@@H](Cc2ccc(O)cc2)C(=O)N[C@@H](CC(=O)O)C1=O` [Ex 1322] ({CH2CO}-[2Nal]YD[NHexGly]YVGRL[Ahp(2)]PVDCY-NH2; thioether N-14): the IC50 turned out to be 5.5 nM. Still for that read-out and setting: to `CCCCCCN1CC(=O)N[C@@H](Cc2ccc(O)cc2)C(=O)N[C@@H](CCCC)C(=O)N[C@@H](CC(N)=O)C(=O)N[C@@H](CCCNC(=N)N)C(=O)N[C@@H](CC(C)C)C(=O)N[C@@H](CCCCC)C(=O)N2CCC[C@H]2C(=O)N[C@@H](C(C)C)C(=O)N[C@@H](CC(=O)O)C(=O)N[C@H](C(=O)N[C@@H](Cc2ccc(O)cc2)C(N)=O)CSCC(=O)N[C@@H](Cc2ccc3ccccc3c2)C(=O)N[C@@H](Cc2ccc(O)cc2)C(=O)N[C@@H](CC(=O)O)C1=O` [Ex 1323] ({CH2CO}-[2Nal]YD[NHexGly]Y[Nle]NRL[Ahp(2)]PVDCY-NH2; thioether N-14) belongs 13.5 nM.
